Data reported in patent US6737383B1, “Herbicidal oxadiazolidines” (priority 1999, dated 2004).

Assays:
rape = test: Test B pre/postemergence rape; type: in vivo, Brassica napus
Outline: (§1)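 Response is a visual 0-to-10 score relative to untreated plants, where 0 means no effect and 10 means complete control, taken twelve to sixteen days after application. Treatments went onto soil at planting and onto foliage of 1- to 4-leaf plants, using a surfactant-containing non-phytotoxic solvent.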

blackgrass = test: Test B pre/postemergence blackgrass; type: in vivo, Alopecurus myosuroides
Outline: as §1

corn = test: Test B pre/postemergence corn; type: in vivo, Zea mays
Outline: as §1

duck salad = test: Test B flood test duck salad; type: in vivo, Heteranthera limosa
Outline: (§2)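 Each value is a visual injury score relative to controls, with 10 meaning complete control and 0 no effect. Evaluation took place twelve to sixteen days after the 2-leaf-stage plants were treated and kept in the greenhouse.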

soybean = test: Test B pre/postemergence soybean; type: in vivo, Glycine max
Outline: as §1

velvetleaf = test: Test B pre/postemergence velvetleaf; type: in vivo, Abutilon theophrasti
Outline: as §1

surinam grass = test: Test B pre/postemergence surinam grass; type: in vivo, Brachiaria decumbens
Outline: as §1

wild oat = test: Test B pre/postemergence wild oat; type: in vivo, Avena fatua
Outline: as §1

smallflower flatsedge = test: Test B flood test smallflower flatsedge; type: in vivo, Cyperus difformis
Outline: as §2

crabgrass = test: Test B pre/postemergence crabgrass; type: in vivo, Digitaria sanguinalis
Outline: as §1

morningglory = test: Test B pre/postemergence morningglory; type: in vivo, Ipomoea hederacea
Outline: as §1

purple nutsedge = test: Test B pre/postemergence purple nutsedge; type: in vivo, Cyperus rotundus
Outline: as §1

sugar beet = test: Test B pre/postemergence sugar beet; type: in vivo, Beta vulgaris
Outline: as §1

wheat = test: Test B pre/postemergence wheat; type: in vivo, Triticum aestivum
Outline: as §1

giant foxtail = test: Test B pre/postemergence giant foxtail; type: in vivo, Setaria faberii
Outline: as §1

cocklebur = test: Test B pre/postemergence cocklebur; type: in vivo, Xanthium strumarium
Outline: as §1

[1] = Postemergence, Rate 62 g/ha, scale 0 to 10, 0 is no effect, 10 is complete control
[2] = Postemergence, Rate 125 g/ha, scale of 0 to 10 where 0 is no effect and 10 is complete control
[3] = Postemergence, Rate 250 g/ha, scale of 0 to 10, 0 is no effect, 10 is complete control
[4] = Postemergence, Rate 500 g/ha, scale of 0 to 10 where 0 is no effect and 10 is complete control
[5] = Preemergence, Rate 62 g/ha, scale 0 to 10 (0 no effect, 10 complete control)
[6] = Preemergence, Rate 125 g/ha, scale of 0 to 10 where 0 is no effect and 10 is complete control
[7] = Preemergence, Rate 250 g/ha, scale 0 to 10 (0 no effect, 10 complete control)
[8] = Preemergence, Rate 500 g/ha, scale of 0 to 10 where 0 is no effect and 10 is complete control
[9] = Rate 62 g/ha, flood test species, Pre-emergence, visual evaluation after twelve to sixteen days
[10] = Rate 125 g/ha, under heading Pre-emergence, flood test species, visual evaluation after twelve to sixteen days
[11] = Rate 250 g/ha, Pre-emergence (flood test species), scale 0 to 10, 0 is no effect, 10 is complete control
[12] = Rate 500 g/ha, Pre-emergence section of Table B, 0 to 10 scale (0 no effect, 10 complete control)

## CCOC(Cn1c(=O)on(C(=O)N(c2ccc(F)cc2)C(C)C)c1=O)OCC [Compound 629]
rape; [1]
  Plant response rating, Rape: 0
rape; [2]
  Plant response rating, Rape: 0
rape; [3]
  Rape plant response rating: 0
rape; [4]
  Plant response rating, Rape: 3
rape; [5]
  Rape plant response rating: 0
rape; [6]
  Rape plant response rating: 0
rape; [7]
  Plant response rating, Rape: 4
rape; [8]
  Plant response rating, Rape: 9
blackgrass; [1]
  Plant response rating, Blackgrass: 3
blackgrass; [2]
  Plant response rating, Blackgrass: 8
blackgrass; [3]
  Blackgrass plant response rating: 8
blackgrass; [4]
  Plant response rating, Blackgrass: 8
blackgrass; [5]
  Blackgrass plant response rating: 4
blackgrass; [6]
  Blackgrass plant response rating: 8
blackgrass; [7]
  Plant response rating, Blackgrass: 8
blackgrass; [8]
  Plant response rating, Blackgrass: 10
corn; [1]
  Plant response rating, Corn: 3
corn; [2]
  Plant response rating, Corn: 3
corn; [3]
  Corn plant response rating: 4
corn; [4]
  Plant response rating, Corn: 6
corn; [5]
  Corn plant response rating: 1
corn; [6]
  Corn plant response rating: 2
corn; [7]
  Plant response rating, Corn: 6
corn; [8]
  Plant response rating, Corn: 8
Duck salad; [9]
  Plant response rating, Ducksalad (0 to 10 scale, 0 is no effect, 10 is complete control): 0
Duck salad; [10]
  Ducksalad plant response rating (0 to 10 scale, 0 is no effect, 10 is complete control): 0
Duck salad; [11]
  Ducksalad plant response rating: 0
Duck salad; [12]
  Ducksalad plant response rating: 0
soybean; [1]
  Plant response rating, Soybean: 4
soybean; [2]
  Plant response rating, Soybean: 6
soybean; [3]
  Soybean plant response rating: 7
soybean; [5]
  Soybean plant response rating: 0
soybean; [6]
  Soybean plant response rating: 0
soybean; [7]
  Plant response rating, Soybean: 0
soybean; [8]
  Plant response rating, Soybean: 0
velvetleaf; [1]
  Plant response rating, Velvetleaf: 0
velvetleaf; [2]
  Plant response rating, Velvetleaf: 5
velvetleaf; [3]
  Velvetleaf plant response rating: 5
velvetleaf; [5]
  Velvetleaf plant response rating: 3
velvetleaf; [6]
  Velvetleaf plant response rating: 6
velvetleaf; [7]
  Plant response rating, Velvetleaf: 6
velvetleaf; [8]
  Plant response rating, Velvetleaf: 8
Surinam grass; [1]
  Plant response rating, B. signalgrass: 0
Surinam grass; [2]
  Plant response rating, B. signalgrass: 1
Surinam grass; [3]
  B. signalgrass plant response rating: 3
Surinam grass; [4]
  Plant response rating, B. signalgrass: 7
Surinam grass; [5]
  B. signalgrass plant response rating: 0
Surinam grass; [6]
  B. signalgrass plant response rating: 2
Surinam grass; [7]
  Plant response rating, B. signalgrass: 5
Surinam grass; [8]
  Plant response rating, B. signalgrass: 8
Wild oat; [1]
  Plant response rating, Wild oats: 0
Wild oat; [2]
  Plant response rating, Wild oats: 0
Wild oat; [5]
  Wild oats plant response rating: 0
Wild oat; [6]
  Wild oats plant response rating: 0
Wild oat; [7]
  Plant response rating, Wild oats: 9
Wild oat; [8]
  Plant response rating, Wild oats: 9
Smallflower flatsedge; [9]
  Plant response rating, S. Flatsedge (0 to 10 scale, 0 is no effect, 10 is complete control): 0
Smallflower flatsedge; [10]
  S. Flatsedge plant response rating (0 to 10 scale, 0 is no effect, 10 is complete control): 0
Smallflower flatsedge; [11]
  S. Flatsedge plant response rating: 0
Smallflower flatsedge; [12]
  S. Flatsedge plant response rating: 0
crabgrass; [1]
  Plant response rating, Crabgrass: 1
crabgrass; [2]
  Plant response rating, Crabgrass: 3
crabgrass; [3]
  Crabgrass plant response rating: 8
crabgrass; [4]
  Plant response rating, Crabgrass: 9
crabgrass; [5]
  Crabgrass plant response rating: 7
crabgrass; [6]
  Crabgrass plant response rating: 9
crabgrass; [7]
  Plant response rating, Crabgrass: 9
crabgrass; [8]
  Plant response rating, Crabgrass: 10
morningglory; [1]
  Plant response rating, Morningglory: 2
morningglory; [2]
  Plant response rating, Morningglory: 2
morningglory; [3]
  Morningglory plant response rating: 3
morningglory; [4]
  Plant response rating, Morningglory: 3
morningglory; [5]
  Morningglory plant response rating: 0
morningglory; [6]
  Morningglory plant response rating: 0
morningglory; [7]
  Plant response rating, Morningglory: 0
morningglory; [8]
  Plant response rating, Morningglory: 4
Purple nutsedge; [1]
  Plant response rating, Nutsedge: 0
Purple nutsedge; [2]
  Plant response rating, Nutsedge: 0
Purple nutsedge; [3]
  Nutsedge plant response rating: 0
Purple nutsedge; [4]
  Plant response rating, Nutsedge: 0
Purple nutsedge; [5]
  Nutsedge plant response rating: 0
Purple nutsedge; [6]
  Nutsedge plant response rating: 2
Purple nutsedge; [7]
  Plant response rating, Nutsedge: 5
Purple nutsedge; [8]
  Plant response rating, Nutsedge: 5
Sugar beet; [1]
  Plant response rating, Sugarbeets: 0
Sugar beet; [2]
  Plant response rating, Sugarbeets: 0
Sugar beet; [3]
  Sugarbeets plant response rating: 0
Sugar beet; [5]
  Sugarbeets plant response rating: 2
Sugar beet; [7]
  Plant response rating, Sugarbeets: 3
Sugar beet; [8]
  Plant response rating, Sugarbeets: 7
wheat; [1]
  Plant response rating, Wheat: 0
wheat; [2]
  Plant response rating, Wheat: 0
wheat; [3]
  Wheat plant response rating: 0
wheat; [5]
  Wheat plant response rating: 0
wheat; [6]
  Wheat plant response rating: 0
wheat; [7]
  Plant response rating, Wheat: 3
wheat; [8]
  Plant response rating, Wheat: 3
Giant foxtail; [1]
  Plant response rating, Giant foxtail: 3
Giant foxtail; [2]
  Plant response rating, Giant foxtail: 8
Giant foxtail; [3]
  Giant foxtail plant response rating: 9
Giant foxtail; [4]
  Plant response rating, Giant foxtail: 9
Giant foxtail; [5]
  Giant foxtail plant response rating: 8
Giant foxtail; [6]
  Giant foxtail plant response rating: 10
Giant foxtail; [7]
  Plant response rating, Giant foxtail: 10
Giant foxtail; [8]
  Plant response rating, Giant foxtail: 10
cocklebur; [1]
  Plant response rating, Cocklebur: 0
cocklebur; [2]
  Plant response rating, Cocklebur: 0
cocklebur; [3]
  Cocklebur plant response rating: 0
cocklebur; [4]
  Plant response rating, Cocklebur: 2
cocklebur; [5]
  Cocklebur plant response rating: 0
cocklebur; [6]
  Cocklebur plant response rating: 0
cocklebur; [7]
  Plant response rating, Cocklebur: 3
cocklebur; [8]
  Plant response rating, Cocklebur: 7
